Results published in patent US12564640B2, “Protein-antiviral compound conjugates” (priority 2020, dated 2026).

Tests used:
[1] = test system: influenza A/H3N2/HK68x31 virus; test: Antiviral efficacy assay, HK68x31; format: cell-based
[2] = test system: influenza A/H1N1/PR8 virus; test: microbe, parasite or virus in culture; format: cell-based, H1N1 A/Puerto Rico/08/1934 influenza virus; settings: for Fold increase over parental antibody: relative to mAb11729 of the same run
[3] = test system: influenza A/H1N1/Cal09 virus; test: Antiviral efficacy assay, Cal09; format: cell-based; settings: relative to mAb11729

Molecule	IC50 [1] [nM]	IC50 ([2]; MDCK London cells, Runs 1-4) [nM]	Fold increase over parental antibody [2] [fold]	Fold increase over parental antibody [3] [fold]
O=C(O)[C@H]1C2CCC(CC2)[C@@H]1Nc1nc(-c2c[nH]c3ncc(F)cc23)ncc1F [VX-787, reference compound]	7.05	9.46	3.32	
mAb11729: anti-hemagglutinin (anti-HA) monoclonal antibody, HCVR SEQ ID NO: 18, LCVR SEQ ID NO: 26 (antibody, V domains shown) VH: QVQLVQSGAEVKKSGSSVKVSCKASGGTFSSYAISWVRQAPGQGLEWMGGIIPIFGTPSYAQKFQDRVTITTDESTSTVYMELSSLRSEDTAVYYCARQQPVYQYNMDVWGQGTTVTVSS VL: DIQMTQSPSSLSASVGDRVTITCRASQGIRNNLGWYQQKPLKAPKRLIYAASSLQSGVPSRFSGSGSGTEFTLTISSLQPEDFATYYCLQYNNYPWTFGQGTKVEIK			1.00	1.00
